Data published in patent US9889081B2, “Aldehyde dehydrogenase inhibitors as novel depigmenting agents” (The Regents of the University of California, priority 2008, dated 2018).

Legend:
[1] = tested on: melanoma cells; conditions: cited from earlier work
[2] = tested on: MNT-1 cells; test: Drug treatment, pigmentation in MNT-1 cells; format: cell-based, human; conditions: doses equivalent to those required for inhibition of Aldh activity in culture
From the text: For further analyses, we focused on those novel pigmentation genes that impacted tyrosinase expression in all three genetic backgrounds. Among these were two isoforms of aldehyde dehydrogenase, Aldh1 and Aldh9, well characterized enzymes that regulate ethanol detoxification (Edenberg 2007). A number of chemical inhibitors of these enzymes have been identified (DeMaster et al. 1998), and several of these agents are clinically utilized to induce alcohol intolerance during detoxification interventions; presenting an opportunity for pharmacological validation of the contribution of Aldh activity to melanocyte pigmentation.
1×10^4 MNT-1 cells were plated in a 96 well microtiter plate. 24 hours after plating, cells were incubated with either vehicle, hydroquinone Angeli's salt, or cyanamide. 48 hours after drug treatment, cell lysates were prepared and subjected to immunoblotting with a tyrosinase and ERK antibody. Similar protocols were utilized in primary melanocytes. Melanocytes were plated in 96 well microtiter plate in the presence of drug or vehicle. 24 hours after drug treatment, melanocytes were treated with UV. Cell lysates were prepared 24 hours after UV treatment and subjected to immunoblotting. […] Cells were incubated for an additional 7 days, with one media change on day 4, prior to collection of absorbance and viability values. […]

[3] = tested on: tyrosinase; test: Drug treatment, tyrosinase immunoblot in MNT-1 cells; format: cell-based, human; conditions: 5 uM, doses equivalent to those required for inhibition of Aldh activity in culture
Method: (§1) FIG. 2A-G. Novel, pharmaceutically-tractable melanogenesis gene networks converge on tyrosinase expression. a, 4 days post transfection with the indicated siRNAs, MNT-1 whole cell lysates were prepared and analyzed by immunoblot for the indicated proteins. A non-targeting siRNA was used as a transfection control (Control). ERK1/2 is shown as a loading control. b, Those siRNAs that inhibited tryosinase accumulation were examined for consequences on Tyrosinase and MITF gene expression by quantitative rt-PCR. c, The indicated siRNAs, targeting novel pigmentation genes identified in the MNT-1 screen, were tested for consequences on tyrosinase protein accumulation in darkly pigmented primary human melanocyte cultures 6 days post transfection as in a. d, The indicated siRNAs, targeting novel pigmentation genes identified in the MNT-1 screen, were tested for consequences on tyrosinase protein accumulation in moderately pigmented primary human melanocyte cultures 6 days post transfection as in a. e, Pharmacological inhibition of Aldh activity impacts tyrosinase protein accumulation. […] Tyrosinase and ERK1/2 levels were assessed by immunoblot. […]
(§2) 1×10^4 MNT-1 cells were plated in a 96 well microtiter plate. […] Cells were incubated for an additional 7 days, with one media change on day 4, prior to collection of absorbance and viability values. […]

[4] = tested on: tyrosinase; test: UV-induced tyrosinase expression in primary melanocytes, immunoblot; format: cell-based, human; conditions: cyanamide 100 uM, UV-B 24 hours post treatment
Method: as §1, §2

[5] = tested on: primary human melanocytes; test: Pigment production in darkly pigmented primary human melanocytes, 7 days with drug; format: cell-based; conditions: seven days
Method: as §1, §2

[6] = tested on: primary human melanocytes; conditions: Hall and Orlow 2005; cited from earlier work
[7] = tested on: tyrosinase; test: Bafilomycin rescue of tyrosinase accumulation after siRNA depletion, immunoblot; format: cell-based, human; conditions: MNT-1 cells, 25 nM bafilomycin
Method: FIG. 2A-G. Novel, pharmaceutically-tractable melanogenesis gene networks converge on tyrosinase expression. a, 4 days post transfection with the indicated siRNAs, MNT-1 whole cell lysates were prepared and analyzed by immunoblot for the indicated proteins. A non-targeting siRNA was used as a transfection control (Control). ERK1/2 is shown as a loading control. b, Those siRNAs that inhibited tryosinase accumulation were examined for consequences on Tyrosinase and MITF gene expression by quantitative rt-PCR. c, The indicated siRNAs, targeting novel pigmentation genes identified in the MNT-1 screen, were tested for consequences on tyrosinase protein accumulation in darkly pigmented primary human melanocyte cultures 6 days post transfection as in a. d, The indicated siRNAs, targeting novel pigmentation genes identified in the MNT-1 screen, were tested for consequences on tyrosinase protein accumulation in moderately pigmented primary human melanocyte cultures 6 days post transfection as in a. e, Pharmacological inhibition of Aldh activity impacts tyrosinase protein accumulation. MNT-1 cells (left panel) and primary melanomcyte cultures (right panels) were exposed to 5 uM Aldh inhibitors (cyanamide or Angeli's salt) or the tyrosinase inhibitor hydroxyquinone(Kim and Uyama 2005) for 72 hours as indicated. 24 hours post treatment, cultures were exposed to UV-B at the doses indicated. Tyrosinase and ERK1/2 levels were assessed by immunoblot. […] Subsequently, cells were lysed in Cell Titer Glo and the luminescence and absorbance values were used to calculate inhibition of pigmentation as in FIG. 1a. g, MNT-1 cells transfected with the indicated siRNAs as in a were incubated in the presence and absence of bafilomycin A2 for 24 hours prior to lyses and analyses of tyrosinase protein accumulation. […]
as §2

[8] = 24 hour inhibition of lysosome acidification

Compound	toxicity [1]	pigmentation [2]	tyrosinase protein accumulation [3]	UV-induced tyrosinase expression [4]	further results
CCN(CC)C(=S)SSC(=S)N(CC)CC [Disulfiram]	toxic to melanoma cells	–	–	–	–
N#CN [cyanamide]	non-toxic	inhibited pigmentation	inhibited	impaired UV-induced tyrosinase expression	melanogenesis [5]: impair melanogenesis
NC(=S)Nc1ccccc1 [PTU, phenylthiourea]	–	–	–	–	in vitro pigment inhibition [6]: most potent currently known in vitro pigment inhibitor
CO/C1=C\C(C)=C\[C@@H](C)[C@@H](O)[C@@H](C)C/C(C)=C/C=C/[C@H](OC)[C@@H]([C@@H](C)[C@@H](O)[C@H](C)[C@@]2(O)C[C@@H](O)[C@H](C)[C@@H](C(C)C)O2)OC1=O [bafilomycin, bafilomycin A]	–	–	–	–	tyrosinase accumulation upon depletion of Msra [7]: did not restore tyrosinase accumulation; tyrosinase accumulation upon depletion of Rab4a [7, 8]: rescued tyrosinase accumulation; tyrosinase accumulation upon depletion of Zdhhc9 [7, 8]: rescued tyrosinase accumulation
[Na+].[Na+].[O-][N+]([O-])=NO [Angeli's salt]	non-toxic	inhibited pigmentation	inhibited	impaired UV-induced tyrosinase expression	–
